Results: US20080089859A1, “ADMINISTRATION OF SLEEP RESTORATIVE AGENTS” (priority 2001, published 2008)

Key:
[1] = system: patient with chronic gout; test: Treatment of a patient with chronic gout and severe synovitis; type: in vivo, human; conditions: for Discontinuation of other medications / Prednisone dose reached: one patient; for Discontinuation of other medications: pramipexole and lorazepam added together; for Prednisone dose reached: colchicine, hydroxychloroquine and Etanercept added together, before sleep agents
Description: Adding colchicine, hydroxychloroquine and Etanercept only allowed them to decrease prednisone to 15 mg qd.

[2] = system: patients with Sjogren's Syndrome; test: Treatment of patients with dry eyes and mouth from Sjogren's Syndrome; type: in vivo, human; conditions: Lorazepam 1-2 mg po qhs, Pramipexole later 0.5-4.0 mg qhs; for Resolution of dryness (eyes and mouth): 3 patients on Hydroxychloroquine 200 mg po bid, nearly complete resolution in third patient; for Hydroxychloroquine sparing: 3 patients
Description: Three patients with dry eyes and mouth from Sjogren's Syndrome, were treated with lorazepam or pramipexole. […] Lorazepam was administered at 1-2 mg po qhs. Pramipexole was later administered at 0.5-4.0 mg qhs.

[3] = system: patients with Palindromic Rheumatism; test: Treatment of patients with Palindromic Rheumatism; type: in vivo, human; conditions: five patients; clonazepam 2 mg, pramipexole 1-6 mg and/or lorazepam 2 mg qhs
Description: Five patient with Palindromic Rheumatism were treated according to the present invention. After adding clonazepam 2 mg, pramipexole 1-6 mg and/or lorazepam 2 mg qhs to their treatment, the patients reported that episodic severe pain decreased dramatically, by 90%.

[4] = system: patients with Ankylosing Spondylitis; test: Treatment of patients with Ankylosing Spondylitis; type: in vivo, human; conditions: six patients on Methotrexate, steroids 2-10 mg qd and Etanercept; lorazepam 1-2 mg qhs or pramipexole 0.5-3.0 mg qhs
Description: Six patients with Ankylosing Spondylitis were treated according to the present invention. […] The patients were administered lorazepam 1-2 mg qhs or pramipexole 0.5-3.0 mg qhs.

[5] = system: patient with Reiter's Syndrome; conditions: one patient on Etanercept; pramipexole up to 4 mg qhs
[6] = system: patients with Systemic Lupus Erythematosis; test: Treatment of patients with Systemic Lupus Erythematosis; type: in vivo, human
Description: Patients with Systemic Lupus Erythematosis were treated according to the present invention.
The dose range of pramipexole ranged from 2-6 mg qhs.

[7] = system: patients with Behcet's Syndrome; test: Treatment of patients with Behcet's Syndrome; type: in vivo, human; conditions: for Symptoms observed in the patient: second patient (pramipexole added to lorazepam), third patient (clonazepam 2 mg qhs); for Discontinuation of prednisone: single patients, lorazepam 2 mg qhs (patient 1), pramipexole added to lorazepam (patient 2), clonazepam 2 mg qhs (patient 3)
Description: Three patients with Behcet's Syndrome were treated according to the present invention. For one patient, prednisone administration was supplemented with lorazepam at 2 mg qhs. […] For a second patient, lorazepam at 2 mg qhs was co-admnistered with Dapsone and prednisone.

[8] = system: patient with ocular and articular Sarcoidosis; conditions: one patient steroid-dependent for two years; Pramipexole to 3 mg qhs
Excerpt: A patient with ocular and articular Sarcoidosis was steroid-dependent for two years.

[9] = system: patients having rheumatoid arthritis; test: Rheumatoid arthritis patients on Leflunamide given sleep restorative agents; type: in vivo, human; conditions: lorazepam, clonazepam and/or pramipexole
[10] = system: rheumatoid arthritis (Ra) and Psoriatic arthritis (PsA) patients; test: Study of Example 1 continued to 18 months (Example 2); type: in vivo, human; conditions: for Response of improved patients after adding the agent to their treatment: 12 month to 18 month time point, on Etanercept
Excerpt: The study of Example 1 was continued to 18 months. […] Fibromyalgia was a surrogate for a lack of deep (e.g., stage IV) restorative sleep.
JC refers to the number of swollen tender joints.

[11] = system: patients having rheumatoid arthritis; test: Rheumatoid arthritis patients on Infliximab given sleep restorative agents; type: in vivo, human; conditions: lorazepam 1-2 mg qhs or pramipexole
[12] = system: patients with Multiple Sclerosis (MS); conditions: for Tolerability: human, in vivo; for MS activity: three patients, pramipexole and/or lorazepam added
Description: Eight patients with Multiple Sclerosis (MS) were treated according to the present invention.

[13] = system: patients having rheumatoid arthritis; test: Rheumatoid arthritis patients on prednisone given Ropinirole; type: in vivo, human; conditions: Ropinirole 2-20 mg qhs
patient with pseudogout = test: Treatment of a patient with pseudogout; type: in vivo, human; conditions: one patient on colchicine; lorazepam 2 mg qhs added for sleep

CCCNC1CCc2nc(N)sc2C1 (stereo not shown) [Pramipexole, 2-amino-4,5,6,7-tetrahydro-6-(propylamino)benzo-thiazole]
Discontinuation of other medications [1]: allowed the patient to discontinue steroids, colchicine, hydroxychoroquine, and narcotics
Resolution of dryness (eyes and mouth) [2]: Complete resolution of the dryness in 2 of 3 patients
Hydroxychloroquine sparing [2]: One daily dose of Hydroxychloroquine was discontinued and benefit maintained
Decrease of episodic severe pain [3]: 90%
Other medications stopped [3]: off narcotics, steroids, Etanercept, Infliximab, leflunamide, Azothioprine, sulfasalazine, hydroxychloroquine and colchicine
Discontinuation of Methotrexate and steroids [4]: All six patients were able to discontinue Methotrexate and steroids
Discontinuation of other medications [5]: able to discontinue methotrexate, steroids 5-10 mg qd, and narcotics
Response of dactylitis and synovitis [5]: dactylitis and synovitis responded better to Etanercept
Decrease or d/c of prednisone ([6]; 8 patients, pramipexole 2-6 mg qhs): 80%
Prednisone dose reached ([6]; person with life threatening leukopenia, steroids 60 mg qd before, Pramipexole increased to 3.5 mg q hs over 3 months): 5 mg qd
Symptoms noted ([6]; same patient after pramipexole 3-4.5 mg qhs): much less fatigue, anemia, joint pain, and had stable kidney function
Prednisone dose reached ([6]; same patient, pramipexole 3-4.5 mg qhs added, first time in 7 years): 5 mg qd
Complete blood count ([6]; same person, after Pramipexole): maintaining normal complete blood count
Symptoms observed in the patient [7]: No fatigue, mouth ulcers, skin vasculitis, hoarse voice or seizures were observed
Discontinuation of prednisone [7]: prednisone 5 mg qd could be discontinued
Decrease of steroids with disease still controlled [8]: 90%
Leflunamide efficacy [9]: increased Leflunamide efficacy
Response of improved patients after adding the agent to their treatment [10]: did much better from the 12 month time point to the 18 month time point
Expected prednisone discontinuation after conversion back to inactive FM ([10]; one patient who developed FM and needs prednisone 10 mg qd, planned treatment): expected to allow them to discontinue prednisone
Infliximab efficacy [11]: increased efficacy of Infliximab
Tolerability [12]: intolerant
MS activity [12]: MS was quiet for over three years

O=C1CN=C(c2ccccc2Cl)c2cc([N+](=O)[O-])ccc2N1 [Clonazepam]
Decrease of episodic severe pain [3]: 90%
Other medications stopped [3]: off narcotics, steroids, Etanercept, Infliximab, leflunamide, Azothioprine, sulfasalazine, hydroxychloroquine and colchicine
Symptoms observed in the patient [7]: less fatigue and no further mouth ulcers were observed
Discontinuation of prednisone [7]: able to discontinue prednisone 10 mg qd
Leflunamide efficacy [9]: increased Leflunamide efficacy
Response of improved patients after adding the agent to their treatment [10]: did much better from the 12 month time point to the 18 month time point

CCCN(CCC)CCc1cccc2c1CC(=O)N2.Cl [Ropinirole, 4-[2-(dipropylamino)-ethyl]-1,3-dihydro-2H-indol-2-one mono hydrochloride]
Prednisone dose [13]: able to lower their prednisone doses
Tolerability [12]: intolerant

C[C@]12C=CC(=O)C=C1CC[C@@H]1[C@@H]2C(=O)C[C@@]2(C)[C@H]1CC[C@]2(O)C(=O)CO [prednisone]
Control of severe synovitis ([1]; prednisone 10-40 mg qd for two months): uncontrolled

CCN(CCO)CCCC(C)Nc1ccnc2cc(Cl)ccc12 (stereo not shown) [hydroxychloroquine]
Prednisone dose reached [1]: 15 mg qd

O=C1Nc2ccc(Cl)cc2C(c2ccccc2Cl)=NC1O (stereo not shown) [Lorazepam]
Discontinuation of other medications [1]: allowed the patient to discontinue steroids, colchicine, hydroxychoroquine, and narcotics
Resolution of dryness (eyes and mouth) [2]: Complete resolution of the dryness in 2 of 3 patients
Hydroxychloroquine sparing [2]: One daily dose of Hydroxychloroquine was discontinued and benefit maintained
Decrease of episodic severe pain [3]: 90%
Other medications stopped [3]: off narcotics, steroids, Etanercept, Infliximab, leflunamide, Azothioprine, sulfasalazine, hydroxychloroquine and colchicine
Discontinuation of Methotrexate and steroids [4]: All six patients were able to discontinue Methotrexate and steroids
Prednisone dose reached ([6]; patient steroid-dependent at 20 mg qd on leflunamide, lorazepam 2 mg qhs added): 15 mg qhs
Discontinuation of Dapsone ([7]; second patient, lorazepam 2 mg qhs with Dapsone and prednisone): Dapsone could be discontinued without further seizures
Discontinuation of prednisone [7]: able to d/c prednisone in two months
Leflunamide efficacy [9]: increased Leflunamide efficacy
Flares (patient with pseudogout): no flares for three years
Response of improved patients after adding the agent to their treatment [10]: did much better from the 12 month time point to the 18 month time point
Infliximab efficacy [11]: increased efficacy of Infliximab
Sleep and fibromyalgia ([12]; one patient flaring uncontrollably, Lorazepam 2 mg qhs): still exhibited poor sleep and fibromyalgia
MS activity [12]: MS was quiet for over three years

COc1cc2c(c(OC)c1OC)-c1ccc(OC)c(=O)cc1[C@@H](NC(C)=O)CC2 [colchicine]
Prednisone dose reached [1]: 15 mg qd
Flares (patient with pseudogout): flare ups were previously uncontrolled
